SMILES strings stand for the structures. Square brackets hold non-standard residues; d marks the D form. Peptide text beside a SMILES is read from it.

The target of one assay is T1, rat SSTR2 (Rattus norvegicus, UniProt P30680).
T1 construct: expressed in transfected cells; host or cells: GH4C1 rat pituitary tumor cells
T1 sequence (P30680 whole entry): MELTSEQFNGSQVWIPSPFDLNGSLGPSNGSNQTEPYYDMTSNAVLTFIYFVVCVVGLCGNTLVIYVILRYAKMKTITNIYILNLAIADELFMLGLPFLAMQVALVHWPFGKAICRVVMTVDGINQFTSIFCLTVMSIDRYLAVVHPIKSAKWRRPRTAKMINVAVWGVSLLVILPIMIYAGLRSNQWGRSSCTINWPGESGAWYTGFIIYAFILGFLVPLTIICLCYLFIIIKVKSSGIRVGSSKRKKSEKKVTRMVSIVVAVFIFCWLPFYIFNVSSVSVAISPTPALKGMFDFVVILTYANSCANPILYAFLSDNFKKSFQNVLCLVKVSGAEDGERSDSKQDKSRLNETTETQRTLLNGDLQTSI
In words: cAMP accumulation in forskolin-stimulated GH4 C1/SSTR2 cells. The class given is cell-based. The conditions noted are these: Forskolin 1.25 μM + MK 678 10 nM, no peptide 1. An excerpt: A primary effect of SRIF upon mammalian cells is the reduction of cyclic adenosine 3',5'-monophosphate(cAMP) levels, via inhibition of adenylyl cyclase. This is the basis of a common assay for SRIF agonists and antagonists, whereby SRIF agonists reduce artificially stimulated cAMP levels, and SRIF antagonists reverse the effect of SRIF. The rat pituitary tumor cell line GH4 C1 predominantly expresses SSTR2, and responds to SRIF and to forskolin, a stimulator of adenylate cyclase (see C. M. Eppler, et al., J. Biol. Chem., 267, 15603-15612, 1992, incorporated herein by reference). A highly sensitive assay for SRIF agonists and antagonists results from additionally transfecting GH4 C1 cells with the cloned rat SSTR2, (see L. A. Price, et al., Molecular and Cellular Biology, 15, 6188-6195, 1995, incorporated herein by reference). This increases the response to SRIF and provides a greater dynamic range for the measurement of SRIF antagonist activity.
Stimulation of cells. GH4 C1 /SSTR2 cells, grown in DMEM with 10% bovine serum, are released from a tissue culture dish by incubation for several minutes at 37° C. with PBS containing 0.5 mM EDTA. Cells are washed in induction buffer (PBS containing 100 μM IBMX (an inhibitor of cAMP breakdown) and 2 mM CaCl2) at room temperature, and resuspended at 2×10^6 /mL in induction buffer. Into each well of a 96-well tray are added 50 μL of a 2× concentration of stimulants in induction buffer. These include (at final concentration) 1.25 μM forskolin, 100 nM SRIF or 10 nM of the SSTR2-selective agonist MK678 and test peptides at various concentrations. To initiate stimulation of the cells, 50 μL (100,000) cells are added to each well, mixed by shaking 10 seconds on a plate shaker and placed at 37° C. for 15 minutes. Stimulation is arrested and cells are lysed by adding 15 μL 0.33N HCl to each well and incubating the plate for 30 minutes at 37° C. Samples are neutralized by addition of 15 μL 0.25N NaOH/50 mM Hepes pH 7.4. Baseline cAMP levels are determined in samples with no added forskolin or SRIF, and each treatment is performed in triplicate.
cAMP assay. To measure accumulated cAMP in the samples, a radioimmunoassay is employed. The scintillation proximity assay (SPA, Amersham, Arlington Heights, Ill.) allows the rapid measurement of ^125 I cAMP bound to a specific antibody without separating bound radioligand from free radioligand. Each of the following reagents (50 μL) are added per well in a 96-well tray: supernatants from the cell stimulation; ^125 I cAMP; SPA beads conjugated to monkey anti-rabbit IgG antibodies; and rabbit anti-cAMP antibodies. For the standard curve, known amounts of cAMP (0.2-12.8 pmol) are added in place of cell supernatants. The 96-well tray is sealed, shaken at room temperature overnight and measured for bound radioligand in a MicroBeta liquid scintillation counter (Wallac, Gaithersburg, Md.). The standard curve is determined for each experiment by performing a nonlinear regression (exponential decay) analysis of cpm measured for the cAMP standards vs. their log concentrations, and test sample values are determined by using Prism software (Graphpad Software Inc., San Diego, Calif.) and are shown in Table II and FIG. 1. FIG. I illustrates the antagonist activity of Peptide 1.
The intrinsic activity of an SRIF antagonist is the percent reversal of the SSTR2, activation by SRIF or MK678, wherein 0% is defined by cAMP levels in samples treated with forskolin plus SRIF or MK678 and 100% is the cAMP level measured after treatment with forskolin alone. Therefore, increased intrinsic activity of a test compound indicates increased antagonist activity of said test compound.
FIG. […]
An inverse agonist is a compound that is not only a pure antagonist (i.e. lacking agonist activity), but also blocks the constitutive activity of an unoccupied receptor. One indication of inverse agonist activity is the ability of a SRIF antagonist to increase cAMP levels in the absence of added SRIF. […]
Turning to `CC(C)[C@@H]1NC(=O)[C@H](CCCCN)NC(=O)[C@@H](Cc2c[nH]c3ccccc23)NC(=O)[C@H](Cc2ccc(O)cc2)NC(=O)[C@H](C)N(C)C(=O)[C@H](Cc2ccccc2)NC1=O` [MK678, reference compound], the cAMP stood at 0.91 pM per 4 × 10^4 cells.

Staying with this assay, now noted: Forskolin 1.25 μM alone.
For the molecule `C=C[C@@]1(C)CC(=O)[C@]2(O)[C@@]3(C)[C@@H](O)CCC(C)(C)[C@@H]3[C@H](O)[C@H](OC(C)=O)[C@@]2(C)O1` [Forskolin, forskolin, reference compound], the cAMP came to 3.04 pM per 4 × 10^4 cells.

Still in this assay, the particulars now being: GH4-C1; test peptide 2 μM; read-out: cAMP Assay, Intrinsic activity (percent reversal of SSTR2 activation by SRIF or MK678).
Turning to `CC[C@@H](C)[C@@H](NC(=O)[C@@H](Cc1ccccc1)NC(=O)[C@@H](C)NC(C)=O)C(=O)N[C@H](CCCNC(=N)N)C(=O)N[C@H](Cc1c[nH]c2ccccc12)C(=O)N[C@H](Cc1ccccc1)C(N)=O` [Peptide 2, a-f-i-r-w-f] (Ac-[dA][dF][dI][dR][dW][dF]-NH2), the Emax is 13%. On the same count and under the same terms, the figure for `CC[C@@H](C)[C@@H](NC(=O)[C@@H](C)NC(=O)[C@@H](Cc1c[nH]cn1)NC(C)=O)C(=O)N[C@H](CCCNC(=N)N)C(=O)N[C@H](Cc1c[nH]c2ccccc12)C(=O)N[C@H](Cc1ccccc1)C(N)=O` [Peptide 3, h-a-i-r-w-f] (Ac-[dH][dA][dI][dR][dW][dF]-NH2) is 9.33%; for `CC(=O)N[C@H](Cc1c[nH]cn1)C(=O)N[C@H](Cc1ccccc1)C(=O)N[C@H](C)C(=O)N[C@H](CCCNC(=N)N)C(=O)N[C@H](Cc1c[nH]c2ccccc12)C(=O)N[C@H](Cc1ccccc1)C(N)=O` [Peptide 4, h-f-a-r-w-f] (Ac-[dH][dF][dA][dR][dW][dF]-NH2) it is 41.8%; for `CC[C@@H](C)[C@@H](NC(=O)[C@@H](Cc1ccccc1)NC(=O)[C@@H](Cc1c[nH]cn1)NC(C)=O)C(=O)N[C@H](C)C(=O)N[C@H](Cc1c[nH]c2ccccc12)C(=O)N[C@H](Cc1ccccc1)C(N)=O` [Peptide 5, h-f-i-a-w-f] (Ac-[dH][dF][dI][dA][dW][dF]-NH2) it is 44.1%. Still for that read-out and setting: the figure for `CC[C@@H](C)[C@@H](NC(=O)[C@@H](Cc1ccccc1)NC(=O)[C@@H](Cc1c[nH]cn1)NC(C)=O)C(=O)N[C@H](CCCNC(=N)N)C(=O)N[C@H](C)C(=O)N[C@H](Cc1ccccc1)C(N)=O` [Peptide 6, h-f-i-r-a-f] (Ac-[dH][dF][dI][dR][dA][dF]-NH2) is 13.4%. The same measure, in the same setting: under `CC[C@@H](C)[C@@H](NC(=O)[C@@H](Cc1ccccc1)NC(C)=O)C(=O)N[C@H](CCCNC(=N)N)C(=O)N[C@H](Cc1c[nH]c2ccccc12)C(=O)N[C@H](Cc1ccccc1)C(N)=O` [Peptide 7, f-i-r-w-f] (Ac-[dF][dI][dR][dW][dF]-NH2) stands -7.2%; under `CC[C@@H](C)[C@@H](NC(=O)[C@@H](Cc1c[nH]cn1)NC(C)=O)C(=O)N[C@H](CCCNC(=N)N)C(=O)N[C@H](Cc1c[nH]c2ccccc12)C(=O)N[C@H](Cc1ccccc1)C(N)=O` [Peptide 8, h-i-r-w-f] (Ac-[dH][dI][dR][dW][dF]-NH2), 2.76%; under `CC(=O)N[C@H](Cc1c[nH]cn1)C(=O)N[C@H](Cc1ccccc1)C(=O)N[C@H](CCCNC(=N)N)C(=O)N[C@H](Cc1c[nH]c2ccccc12)C(=O)N[C@H](Cc1ccccc1)C(N)=O` [Peptide 9, h-f-r-w-f] (Ac-[dH][dF][dR][dW][dF]-NH2), 6.36%. As for `CC[C@@H](C)[C@@H](NC(=O)[C@@H](Cc1ccccc1)NC(=O)[C@@H](Cc1c[nH]cn1)NC(C)=O)C(=O)N[C@H](Cc1c[nH]c2ccccc12)C(=O)N[C@H](Cc1ccccc1)C(N)=O` [Peptide 10, h-f-i-w-f] (Ac-[dH][dF][dI][dW][dF]-NH2), the Emax was determined as 25.3%. For `CC[C@@H](C)[C@@H](NC(=O)[C@@H](Cc1ccccc1)NC(=O)[C@@H](Cc1c[nH]cn1)NC(C)=O)C(=O)N[C@H](CCCNC(=N)N)C(=O)N[C@H](Cc1ccccc1)C(N)=O` [Peptide 11, h-f-i-r-f] (Ac-[dH][dF][dI][dR][dF]-NH2), the Emax is 12.1%. On the same count and under the same terms, under `CC[C@@H](C)[C@@H](NC(=O)[C@@H](Cc1ccccc1)NC(=O)[C@@H](Cc1c[nH]cn1)NC(C)=O)C(=O)N[C@H](CCCNC(=N)N)C(=O)N[C@H](Cc1c[nH]c2ccccc12)C(N)=O` [Peptide 12, h-f-i-r-w] (Ac-[dH][dF][dI][dR][dW]-NH2) stands 29.1%; under `CC[C@@H](C)[C@@H](NC(=O)[C@@H](Cc1ccccc1)NC(=O)[C@H](Cc1c[nH]cn1)NC(C)=O)C(=O)N[C@H](CCCNC(=N)N)C(=O)N[C@H](Cc1c[nH]c2ccccc12)C(=O)N[C@H](Cc1ccccc1)C(N)=O` [Peptide 13, H-f-i-r-w-f] (Ac-H[dF][dI][dR][dW][dF]-NH2), 26.2%; under `CC[C@@H](C)[C@@H](NC(=O)[C@H](Cc1ccccc1)NC(=O)[C@@H](Cc1c[nH]cn1)NC(C)=O)C(=O)N[C@H](CCCNC(=N)N)C(=O)N[C@H](Cc1c[nH]c2ccccc12)C(=O)N[C@H](Cc1ccccc1)C(N)=O` [Peptide 14, h-F-i-r-w-f] (Ac-[dH]F[dI][dR][dW][dF]-NH2), 29.6%. Still for that read-out and setting: under `CC[C@H](C)[C@H](NC(=O)[C@@H](Cc1ccccc1)NC(=O)[C@@H](Cc1c[nH]cn1)NC(C)=O)C(=O)N[C@H](CCCNC(=N)N)C(=O)N[C@H](Cc1c[nH]c2ccccc12)C(=O)N[C@H](Cc1ccccc1)C(N)=O` [Peptide 15, h-f-I-r-w-f] (Ac-[dH][dF]I[dR][dW][dF]-NH2) stands 9.71%. Consider `CC[C@@H](C)[C@@H](NC(=O)[C@@H](Cc1ccccc1)NC(=O)[C@@H](Cc1c[nH]cn1)NC(C)=O)C(=O)N[C@@H](CCCNC(=N)N)C(=O)N[C@H](Cc1c[nH]c2ccccc12)C(=O)N[C@H](Cc1ccccc1)C(N)=O` [Peptide 16, h-f-i-R-w-f] (Ac-[dH][dF][dI]R[dW][dF]-NH2), for which the Emax was determined as 43.6%.

In the case of `CC[C@@H](C)[C@@H](NC(=O)[C@@H](Cc1ccccc1)NC(=O)[C@@H](Cc1c[nH]cn1)NC(C)=O)C(=O)N[C@H](CCCNC(=N)N)C(=O)N[C@@H](Cc1c[nH]c2ccccc12)C(=O)N[C@H](Cc1ccccc1)C(N)=O` [Peptide 17, h-f-i-r-W-f] (Ac-[dH][dF][dI][dR]W[dF]-NH2), the Emax came out at 50.2%. For `CC[C@@H](C)[C@@H](NC(=O)[C@@H](Cc1ccccc1)NC(=O)[C@@H](Cc1c[nH]cn1)NC(C)=O)C(=O)N[C@H](CCCNC(=N)N)C(=O)N[C@H](Cc1c[nH]c2ccccc12)C(=O)N[C@@H](Cc1ccccc1)C(N)=O` [Peptide 18, h-f-i-r-w-F] (Ac-[dH][dF][dI][dR][dW]F-NH2), the Emax was determined as 46.7%.

Regarding `CC[C@@H](C)[C@@H](NC(=O)[C@@H](Cc1ccc(O)cc1)NC(=O)[C@@H](CCCCN)NC(C)=O)C(=O)N[C@H](CCCNC(=N)N)C(=O)N[C@H](Cc1c[nH]c2ccccc12)C(=O)N[C@H](Cc1ccccc1)C(N)=O` [Peptide 19, k-y-i-r-w-f] (Ac-[dK][dY][dI][dR][dW][dF]-NH2), the Emax was 33.3%.

Consider `CC[C@@H](C)[C@@H](NC(=O)[C@@H](Cc1ccc(O)cc1)NC(=O)[C@@H](Cc1c[nH]cn1)NC(C)=O)C(=O)N[C@H](CCCNC(=N)N)C(=O)N[C@H](Cc1c[nH]c2ccccc12)C(=O)N[C@H](Cc1ccccc1)C(N)=O` [Peptide 20, h-y-i-r-w-f] (Ac-[dH][dY][dI][dR][dW][dF]-NH2), for which the Emax turned out to be 56.5%.

Still in this assay, the particulars now being: forskolin stimulated cells; agonist alone or with 10 μM peptide 1.
Turning to `CC(C)[C@@H]1NC(=O)[C@H](CCCCN)NC(=O)[C@@H](Cc2c[nH]c3ccccc23)NC(=O)[C@H](Cc2ccc(O)cc2)NC(=O)[C@H](C)N(C)C(=O)[C@H](Cc2ccccc2)NC1=O` [MK678, reference compound], the “Maximum (cAMP level of agonist dose response)” value is listed as 6.431 and the “Minimum (cAMP level of agonist dose response)” value was 2.673.

Values taken from US5925618A, “Peptides useful as somatostatin antagonists” (American Cyanamid Company, priority 1998, dated 1999).
